# From PubChem BioAssay (NCI)
#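 Dose response: 5 concentrations. Exposure: 48 h. Format: 96-well plates. Endpoint: linear interpolation; highest concentration if not reached. Abbreviation: GI50, concentration required for 50% inhibition of growth. TGI denotes the concentration required for complete inhibition of growth.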
# Columns and labels:
# Test in all cases: inhibition of tumour cell growth, NCI panel, 48 h
# SNB-19 CNS = system: SNB-19 CNS
# SK-OV-3 ovarian = system: SK-OV-3 ovarian
# HOP-62 NSCLC = system: HOP-62 NSCLC
# A498 renal = system: A498 renal
# MCF7 breast = system: MCF7 breast
# IGROV1 ovarian = system: IGROV1 ovarian
# SK-MEL-28 melanoma = system: SK-MEL-28 melanoma
# MOLT-4 leukemia = system: MOLT-4 leukemia
# HCC-2998 colon = system: HCC-2998 colon
# UACC-62 melanoma = system: UACC-62 melanoma
# OVCAR-4 ovarian = system: OVCAR-4 ovarian
# EKVX NSCLC = system: EKVX NSCLC
# A549 NSCLC = system: A549 NSCLC
# MALME-3M melanoma = system: MALME-3M melanoma
# UACC-257 melanoma = system: UACC-257 melanoma
# OVCAR-3 ovarian = system: OVCAR-3 ovarian
# COLO 205 colon = system: COLO 205 colon
# UO-31 renal = system: UO-31 renal
# SK-MEL-5 melanoma = system: SK-MEL-5 melanoma
# HCT-116 colon = system: HCT-116 colon
# HT29 colon = system: HT29 colon
# ACHN renal = system: ACHN renal
# CCRF-CEM leukemia = system: CCRF-CEM leukemia
# K-562 leukemia = system: K-562 leukemia
# BT-549 breast = system: BT-549 breast
# SF-268 CNS = system: SF-268 CNS
# NCI-H23 lung = system: NCI-H23 lung
# LOX IMVI melanoma = system: LOX IMVI melanoma
# NCI/ADR-RES ovarian = system: NCI/ADR-RES ovarian
# PC-3 prostate = system: PC-3 prostate
# HOP-92 NSCLC = system: HOP-92 NSCLC
# TK-10 renal = system: TK-10 renal
# SF-295 CNS = system: SF-295 CNS
# NCI-H226 lung = system: NCI-H226 lung
# M14 melanoma = system: M14 melanoma
# OVCAR-8 ovarian = system: OVCAR-8 ovarian
# RPMI-8226 leukemia = system: RPMI-8226 leukemia
# KM12 colon = system: KM12 colon
# RXF 393 renal = system: RXF 393 renal
# 786-0 renal = system: 786-0 renal
# CAKI-1 renal = system: CAKI-1 renal
# SF-539 CNS = system: SF-539 CNS
# NCI-H522 lung = system: NCI-H522 lung
# OVCAR-5 ovarian = system: OVCAR-5 ovarian
# HS 578T breast = system: HS 578T breast
# SW-620 colon = system: SW-620 colon
# DU-145 prostate = system: DU-145 prostate
# U251 CNS = system: U251 CNS
# SN12C renal = system: SN12C renal
# MDA-MB-231 breast = system: MDA-MB-231 breast
# SNB-75 CNS = system: SNB-75 CNS
# T-47D breast = system: T-47D breast
# HL-60(TB) leukemia = system: HL-60(TB) leukemia
# MDA-MB-435 = system: MDA-MB-435
# SK-MEL-2 melanoma = system: SK-MEL-2 melanoma
# HCT-15 colon = system: HCT-15 colon
# NCI-H460 lung = system: NCI-H460 lung
# SR leukemia = system: SR leukemia
compound,measurement,setting,value
O=C1C(SCCO)=C(SCCO)C(=O)N1c1ccc(-c2ccccc2)cc1,GI50,SNB-19 CNS,19.8 µM
same,TGI,SNB-19 CNS,43.1 µM
same,GI50,SK-OV-3 ovarian,32.7 µM
same,TGI,SK-OV-3 ovarian,> 100 µM
same,GI50,HOP-62 NSCLC,4.88 µM
same,TGI,HOP-62 NSCLC,10.6 µM
same,GI50,A498 renal,18 µM
same,TGI,A498 renal,37.9 µM
same,GI50,MCF7 breast,2170 nM
same,TGI,MCF7 breast,7.74 µM
same,GI50,IGROV1 ovarian,2020 nM
same,TGI,IGROV1 ovarian,4.67 µM
same,GI50,SK-MEL-28 melanoma,2410 nM
same,TGI,SK-MEL-28 melanoma,6.65 µM
same,GI50,MOLT-4 leukemia,18.9 µM
same,TGI,MOLT-4 leukemia,73.1 µM
same,GI50,HCC-2998 colon,3.65 µM
same,TGI,HCC-2998 colon,9.87 µM
same,GI50,UACC-62 melanoma,6.34 µM
same,TGI,UACC-62 melanoma,19 µM
same,GI50,OVCAR-4 ovarian,932 nM
same,TGI,OVCAR-4 ovarian,3.1 µM
same,GI50,EKVX NSCLC,9.5 µM
same,TGI,EKVX NSCLC,23.3 µM
same,GI50,A549 NSCLC,10.2 µM
same,TGI,A549 NSCLC,27 µM
same,GI50,MALME-3M melanoma,1610 nM
same,TGI,MALME-3M melanoma,5.31 µM
same,GI50,UACC-257 melanoma,3.32 µM
same,TGI,UACC-257 melanoma,7.62 µM
same,GI50,OVCAR-3 ovarian,897 nM
same,TGI,OVCAR-3 ovarian,2320 nM
same,GI50,COLO 205 colon,1450 nM
same,TGI,COLO 205 colon,3.09 µM
same,GI50,UO-31 renal,1540 nM
same,TGI,UO-31 renal,2970 nM
same,GI50,SK-MEL-5 melanoma,9.46 µM
same,TGI,SK-MEL-5 melanoma,24.6 µM
same,GI50,HCT-116 colon,536 nM
same,TGI,HCT-116 colon,1240 nM
same,GI50,HT29 colon,1020 nM
same,TGI,HT29 colon,3.5 µM
same,GI50,ACHN renal,1680 nM
same,TGI,ACHN renal,3.11 µM
same,GI50,CCRF-CEM leukemia,2340 nM
same,TGI,CCRF-CEM leukemia,6.87 µM
same,GI50,K-562 leukemia,> 50 µM
same,TGI,K-562 leukemia,> 100 µM
same,GI50,BT-549 breast,4.01 µM
same,TGI,BT-549 breast,8.38 µM
same,GI50,SF-268 CNS,3.1 µM
same,TGI,SF-268 CNS,7.65 µM
same,GI50,NCI-H23 lung,4.38 µM
same,TGI,NCI-H23 lung,13.3 µM
same,GI50,LOX IMVI melanoma,2700 nM
same,TGI,LOX IMVI melanoma,8.44 µM
same,GI50,NCI/ADR-RES ovarian,3.54 µM
same,TGI,NCI/ADR-RES ovarian,16.2 µM
same,GI50,PC-3 prostate,1070 nM
same,TGI,PC-3 prostate,7.57 µM
same,GI50,HOP-92 NSCLC,1870 nM
same,TGI,HOP-92 NSCLC,7.24 µM
same,GI50,TK-10 renal,1490 nM
same,TGI,TK-10 renal,3.18 µM
same,GI50,SF-295 CNS,20.7 µM
same,TGI,SF-295 CNS,46.1 µM
same,GI50,NCI-H226 lung,23.1 µM
same,TGI,NCI-H226 lung,> 53.4 µM
same,GI50,M14 melanoma,2310 nM
same,TGI,M14 melanoma,7.64 µM
same,GI50,OVCAR-8 ovarian,2000 nM
same,TGI,OVCAR-8 ovarian,5.82 µM
same,GI50,RPMI-8226 leukemia,845 nM
same,TGI,RPMI-8226 leukemia,4.6 µM
same,GI50,KM12 colon,7.55 µM
same,TGI,KM12 colon,20.8 µM
same,GI50,RXF 393 renal,1190 nM
same,TGI,RXF 393 renal,2730 nM
same,GI50,786-0 renal,1330 nM
same,TGI,786-0 renal,2840 nM
same,GI50,CAKI-1 renal,644 nM
same,TGI,CAKI-1 renal,1790 nM
same,GI50,SF-539 CNS,1780 nM
same,TGI,SF-539 CNS,3.92 µM
same,GI50,NCI-H522 lung,7.51 µM
same,TGI,NCI-H522 lung,22.6 µM
same,GI50,OVCAR-5 ovarian,3.61 µM
same,TGI,OVCAR-5 ovarian,11 µM
same,GI50,HS 578T breast,17.2 µM
same,TGI,HS 578T breast,> 77.9 µM
same,GI50,SW-620 colon,1450 nM
same,TGI,SW-620 colon,3.94 µM
same,GI50,DU-145 prostate,3.59 µM
same,TGI,DU-145 prostate,8.94 µM
same,GI50,U251 CNS,5.21 µM
same,TGI,U251 CNS,15.7 µM
same,GI50,SN12C renal,5.47 µM
same,TGI,SN12C renal,19.6 µM
same,GI50,MDA-MB-231 breast,13.3 µM
same,TGI,MDA-MB-231 breast,32.7 µM
same,GI50,SNB-75 CNS,4.1 µM
same,TGI,SNB-75 CNS,11.1 µM
same,GI50,T-47D breast,1710 nM
same,TGI,T-47D breast,7.43 µM
same,GI50,HL-60(TB) leukemia,18.7 µM
same,TGI,HL-60(TB) leukemia,51.6 µM
same,GI50,MDA-MB-435,4.98 µM
same,TGI,MDA-MB-435,12.8 µM
same,GI50,SK-MEL-2 melanoma,259 nM
same,TGI,SK-MEL-2 melanoma,1690 nM
same,GI50,HCT-15 colon,2130 nM
same,TGI,HCT-15 colon,5.31 µM
same,GI50,NCI-H460 lung,9.75 µM
same,TGI,NCI-H460 lung,34.9 µM
same,GI50,SR leukemia,182 nM
same,TGI,SR leukemia,> 100 µM
